This is an account of results in patent publication EP0600950B1, “AMIDE TETRAZOLE ACAT INHIBITORS” (priority 1991, dated 1993).

The first assay concerns the target acyl-CoA: cholesterol acyltransferase (ACAT). Put plainly: in vitro ACAT inhibition, rat liver microsomes (LAI). The format is biochemical. The conditions noted are these: radiolabeled cholesterol oleate formed from radiolabeled oleic acid. From the text:
(§1) The test assesses the ability of a test compound to inhibit the acylation of cholesterol by oleic acid by measuring the amount of radiolabeled cholesterol oleate formed from radiolabeled oleic acid in a tissue preparation containing rabbit intestinal microsomes (designated IAI) or from rat liver microsomes (designated LAI).
Broadly, the IC50 is the point on the concentration scale where inhibition reaches its midpoint. Take `CC(C)c1cccc(C(C)C)c1NC(=O)C(c1ccccc1)n1nnc(C(c2ccccc2)c2ccccc2)n1` (racemic) [Example 90, (±)-N-[2,6-bis(1-methylethyl)phenyl]-5-(diphenylmethyl)-α-phenyl-2H-tetrazole-2-acetamide]: the midpoint of inhibition, the IC50, lay at 100 nM.

In turn, `CCCCCCCCCCCCc1nnn(CC(=O)Nc2c(OC)cc(OC)cc2OC)n1` [Example 97, 5-dodecyl-N-(2,4,6-trimethoxy-phenyl)-2H-tetrazole-2-acetamide] had a concentration for half-maximal inhibition (IC50) of 56 nM.

Molecule `CCCCCCCCCCCCc1nnn(C(C(=O)Nc2ccc(F)cc2F)c2ccccc2)n1` (racemic) [Example 100, (±)-N-(2,4-difluorophenyl-5-dodecyl-α-phenyl-2H-tetrazole-2-acetamide] gave an IC50 of 80 nM.

`CCCCCCCCCCCCc1nnn(C(C(=O)Nc2c(OC)cc(OC)cc2OC)c2ccccc2)n1` (racemic) [Example 98, (±)-5-dodecyl-α-phenyl-N-(2,4,6-trimethoxyphenyl)-2H-tetrazole-2-acetamide] showed a 50% inhibitory concentration (IC50) of 21 nM. This IC50 is about 3.8-fold lower than that of the molecule before.

On to `CCCCCCCCCCCCc1nnn(C(CCCCC)C(=O)Nc2c(OC)cc(OC)cc2OC)n1` (racemic) [Example 99, (±)-5-dodecyl-α-pentyl-N-(2,4,6-trimethoxyphenyl)-2H-tetrazole-2-acetamide], for which the half-inhibitory concentration (IC50) is 32 nM.

For `CCCCCCCCCCCCSc1nnn(C(C(=O)Nc2c(OC)cc(OC)cc2OC)c2ccccc2)n1` (racemic) [Example 103, (±)-5-(dodecylthio)-α-phenyl-N-(2,4,6-trimethoxyphenyl)-2H-tetrazole-2-acetamide], the IC50 came to 49 nM.

`CCCCCCCCCCc1nnn(CC(=O)Nc2c(C(C)C)cccc2C(C)C)n1` [Example 88, N-[2,6-bis(1-methylethyl)phenyl]-5-decyl-2H-tetrazole-2-acetamide] registered a half-inhibitory concentration (IC50) of 10 nM.

For `CCCCCCCCCCCCc1nnn(C(C(=O)Nc2c(C(C)C)cccc2C(C)C)c2ccccc2)n1` (racemic) [Example 92, (±)-N-[2,6-bis(1-methylethyl)phenyl]-5-dodecyl-α-phenyl-2H-tetrazole-2-acetamide], the IC50 amounted to 15 nM.

Molecule `COc1cc(OC)c(NC(=O)C(c2ccccc2)n2nnc(C(c3ccccc3)c3ccccc3)n2)c(OC)c1` (racemic) [Example 96, (±)-5-(diphenylmethyl)-α-phenyl-N-(2,4,6-trimethoxyphenyl)-2H-tetrazole-2-acetamide] gave an IC50 of 190 nM. Compared with the last molecule, the IC50 is about 13-fold higher.

Turning to `CCCCCCCCCCc1nnnn1CC(=O)Nc1c(C(C)C)cccc1C(C)C` [Example 89, N-[2,6-bis(1-methylethyl)phenyl]-5-decyl-1H-tetrazole-1-acetamide], half-maximal inhibition (IC50) was put at 390 nM.

As to `CCCCCCCCCCCCc1nnn(C(C)(C)C(=O)Nc2c(OC)cc(OC)cc2OC)n1` [Example 102, 5-dodecyl-α,α-dimethyl-N-(2,4,6-trimethoxyphenyl)-2H-tetrazole-2-acetamide], the half-maximal inhibitory concentration (IC50) was 42 nM. This IC50 is about 9.3-fold lower than that of the molecule before.

Regarding `CCCCCCCCCCc1nnn(C(C(=O)Nc2c(OC)cc(OC)cc2OC)c2ccccc2)n1` (racemic) [Example 95, (±)-5-decyl-α-phenyl-N-(2,4,6-trimethoxyphenyl-2H-tetrazole-2-acetamide], half-maximal inhibition (IC50) was put at 58 nM.

Molecule `CCCCCCCCCCCCSc1nnn(C(C(=O)Nc2c(C(C)C)cccc2C(C)C)c2ccccc2)n1` (racemic) [Example 94, (±)-N-[2,6-bis(1-methylethyl)phenyl-5-(dodecylthio)-α-phenyl-2H-tetrazole-2-acetamide] had an IC50 of 29 nM.

`CCCCCCCCCCCCc1nnn(C(CCCCC)C(=O)Nc2c(C(C)C)cccc2C(C)C)n1` (racemic) [Example 93, (±)-N-[2,6-bis(1-methylethyl)phenyl]-5-dodecyl-α-pentyl-2H-tetrazole-2-acetamide]: the concentration for half-maximal inhibition (IC50) came out at 22 nM.

`CCCCCCCCCCCCc1nnn(CC(=O)Nc2c(C(C)C)cccc2C(C)C)n1` [Example 91] returned an IC50 of 6 nM. This IC50 lies about 3.7-fold lower than the previous one.

The molecule `CCCCCCCCCCCC[S+]([O-])c1nnn(C(C(=O)Nc2c(OC)cc(OC)cc2OC)c2ccccc2)n1` (racemic) [Example 104, (±)-5-(dodecylsulfinyl)-α-phenyl-N-(2,4,6)-trimethoxyphenyl)-2H-tetrazole-2-acetamide] registered a concentration for half-maximal inhibition (IC50) of 55 nM.

`CCCCCCCCCCCCc1nnn(CC(=O)Nc2ccc(F)cc2F)n1` [Example 101, N-(2,4-difluorophenyl)-5-dodecyl-2H tetrazole-2-acetamide] displayed a half-inhibitory concentration (IC50) of more than 5000 nM.

Another assay has the same target. The assay can be described thus: in vitro ACAT inhibition, rabbit intestinal microsomes (IAI). Format: biochemical. The conditions noted are these: radiolabeled cholesterol oleate formed from radiolabeled oleic acid.
Text: as §1
Molecule `CCCCCCCCCCCCn1nnc(CC(=O)Nc2c(C(C)C)cccc2C(C)C)n1` [Example 1, N-[2,6-Bis(1-methylethyl)phenyl]-2-dodecyl-2H-tetrazole-5-acetamide] came in with a 50% inhibitory concentration (IC50) of 3 nM.

Molecule `CCCCCCCCCCCCn1nnc(C(C(=O)Nc2c(OC)cc(OC)cc2OC)c2ccc3ccccc3c2)n1` (racemic) [Example 53, (±)-2-Dodecyl-α-2-naphthalenyl-N-(2,4,6-trimethoxyphenyl)-2H-tetrazole-5-acetamide] registered an IC50 of 97 nM.

With `CCCCCCCCCCCCn1nnc(C(C(=O)Nc2c(OC)cc(OC)cc2OC)C2CCCCC2)n1` (racemic) [Example 60, (±)-2-Dodecyl-α-(cyclohexyl)-N-(2,4,6-trimethoxy-phenyl)-2H-tetrazole-5-acetamide], the IC50 stood at 28 nM.

For `CCCCCCCCCCCCn1nnc(C(C(=O)Nc2ccccc2)c2ccccc2)n1` (racemic) [Example 14, (±)-2-dodecyl-N,α-diphenyl-2H-tetrazole-5-acetamide], the concentration for half-maximal inhibition (IC50) is 91 nM.

For the molecule `CCCCCCCCCCCCn1nnc(C(C(=O)Nc2c(C(C)C)cccc2C(C)C)c2ccccc2)n1` (racemic) [Example 15, (±)-N-[2,6-bis(1-methylethyl)phenyl]-2-dodecyl-α-phenyl-2H-tetrazole-5-acetamide], the 50% inhibitory concentration (IC50) was determined as 8 nM.

`CCCCCCCCCCCCn1nnc(CC(=O)Nc2ccc(F)cc2F)n1` [Example 9, N-(2,4-difluoro-phenyl)-2-dodecyl-2H-tetrazole-5-acetamide] registered a half-maximal inhibitory concentration (IC50) of 280 nM.

Take “(±)-2-Dodecyl-β-phenyl-N-(2,4-6-trimethoxyphenyl)-2H-tetrazole-5-propanamide and (±)-1-dodecyl-β-phenyl-N-(2,4,6-trimethoxyphenyl)-^1H-tetrazole-5-acetamide [Example 45]”: inhibition was half-maximal at 230 nM (IC50).

For `CCCCCCCCCCCCn1nnnc1C(C(=O)Nc1ccc(F)cc1F)c1ccccc1` (racemic) [Example 25, (±)-N-(2,4-Difluorophenyl)-1-dodecyl-α-phenyl-1H-tetrazole-5-acetamide], the IC50 turned out to be 800 nM.

The molecule `CCCCCCCCCCCCn1nnc(C(C(=O)NC2CC2)c2ccccc2)n1` (racemic) [Example 20, (±)-N-cyclopropyl-2-dodecyl-α-phenyl-2H-tetrazole-5-acetamide] showed an IC50 of 47 nM.

The molecule `CCCCCCCCCCCCn1nnc(C(C(=O)Nc2c(OC)cc(OC)cc2OC)c2ccc(F)cc2)n1` (racemic) [Example 52, (±)-2-Dodecyl-α-(4-fluorophenyl)-N-(2,4,6-trimethoxyphenyl)-2H-tetrazole-5-acetamide] returned a half-inhibitory concentration (IC50) of 36 nM.

In the next assay the test system is male Sprague-Dawley rats. The assay can be described thus: in vivo screen APCC, cholesterol-fed rats, blood cholesterol. The conditions noted are these: Table 2, dosed at 30 mg/kg unless otherwise noted, high fat, high cholesterol diet with 0.5% cholic acid overnight, blood cholesterol vs vehicle. From the text:
In one in vivo screen designated APCC, male Sprague-Dawley rats (200 to 225 g) were randomly divided into treatment groups and dosed at 4 PM with either vehicle (CMC/Tween) or suspensions of compounds in vehicle. The normal chow diet was then replaced with a high fat, high cholesterol diet with 0.5% cholic acid. The rats consumed this diet ad libitum during the night and were sacrificed at 8 AM to obtain blood samples for cholesterol analysis using standard procedures. Statistical differences between mean cholesterol values for the same vehicle were determined using analysis of variance followed by Fisher's least significant test.
With “(±)-2-Dodecyl-β-phenyl-N-(2,4-6-trimethoxyphenyl)-2H-tetrazole-5-propanamide and (±)-1-dodecyl-β-phenyl-N-(2,4,6-trimethoxyphenyl)-^1H-tetrazole-5-acetamide [Example 45]”, the “APCC (% ΔTC)” value was -60%.
